Source: patent US7317037B2, “Progesterone receptor modulators comprising pyrrole-oxindole derivatives and uses thereof” (Wyeth, priority 2004, dated 2008)

Assays:
[1] = tested on: rat uterine decidualization; test: Rat decidualization assay; type: in vivo; conditions: po, read-out: ED50 in the rat decidual assay
Method: B. Progestational and Antiprogestational Activity in Mature Ovariectomized Rats (Rat Decidualization Assay)
This assay is used to evaluate the effect of progestins and antiprogestins on rat uterine decidualization and compare the relative potencies of various test compounds.
Test compounds are dissolved in 100% ethanol and mixed with corn oil (vehicle). Stock solutions of the test compounds in oil (Mazola™) are then prepared by heating (˜80° C.) the mixture to evaporate ethanol. Test compounds are subsequently diluted with 100% corn oil or 10% ethanol in corn oil prior to the treatment of animals. No difference in decidual response is found when these two vehicles are compared. […]
Approximately 24 hr after the third injection, decidualization is induced in one of the uterine horns of anesthetized rats by scratching the antimesometrial luminal epithelium with a blunt 21 G needle. […] Approximately 24 hr following the final treatment, rats are sacrificed by […] and bodyweight measured. […]
In agonist mode, the increase in weight of the decidualized uterine horn is calculated by D-horn/C-horn and logarithmic transformation is used to maximize normality and homogeneity of variance. […] EC50 is calculated from the transformed value. […] IC50 is calculated from the retransformed value. […]

menses induction = test: Cynomolgus monkey menses induction assay; type: in vivo; conditions: 5 mg/kg po
Method: C. Cynomolgus Monkey […] Induction 1. Experimental Design The effects of administered compound(s) in either a single dose or a dose-response paradigm versus an appropriate control (vehicle alone) are determined. When a compound is tested at a single dose, a group of four animals will be used for the dose. In the dose response study, each experiment will involve up to 5 groups of animals (a control group and 4 groups of animals treated with varying doses of the compound). Experimental groups will contain 3-4 animals/group, since this sample size is commonly used in the literature and has been found appropriate based on our own experience. The animals are treated with test compounds once or twice daily for 4 days in the mid-luteal phase of the menstrual cycle to assess the efficacy of the compounds on the reproductive parameters menstruation. 2. Procedures Initially, animals are characterized in terms of their reproductive cyclicity by observing time of menstruation. Only those animals with two consecutive normal cycles are used to evaluate test compounds. […] will be determined by daily gross examination for vaginal bleeding. In each experiment, animals will be treated once or twice daily IV, IM, SC or PO with the test compound. Appropriate vehicles will be determined for each route of administration and will be specified through protocol amendments. […]

[2] = Cynomolgus monkey intravenous pharmacokinetics; conditions: in vivo, cynomolgus monkeys, 0.25 mg/kg i.v.
From the text: Therefore from the preceding data it is clear that the R6=fluorine group present in 5-(7-fluoro-3,3-dimethyl-2-oxo-2,3-dihydro-1H-indol-5-yl)-1-methyl-1H-pyrrole-2-carbonitrile dramatically improves the pharmacokinetic performance of the molecule. This improved pharmacokinetic performance translates in the cynomolgus menses induction assay to a dramatic improvement in activity.

- AUC(0-inf) ([2]; read-out: exposure (AUC0-∞)): 343 ng·h/mL
- half-life ([2]; read-out: mean half life (t1/2) (converted)): 2.1 h
Structure (SMILES): Cn1c(C#N)ccc1-c1ccc2c(c1)C(C)(C)C(=O)N2 [5-(3,3-Dimethyl-2-oxo-2,3-dihydro-1H-indol-5-yl)-1-methyl-1H-pyrrole-2-carbonitrile, reference compound]
- ED50 [1]: 0.2 mg/kg
- induction of early onset of menses (menses induction): not active
